Like-named read-outs stand apart in the source and are kept apart here.
Target: T1, LCK (Homo sapiens, UniProt P06239)
T1 construct: LCK KD GST (225-509); GST
Assay: LCK-Homogeneous Time Resolved Fluorescent (HTRF) Kinase Assay
Format: biochemical
Method: LCK-Homogeneous Time Resolved Fluorescent (HTRF) Kinase Assay:
The LCK HTRF assay begins with LCK in the presence of ATP phosphorylating the biotinylated peptide Gastrin. The reaction incubates for 90 min. To quench the assay detection reagents are added which both stop the reaction by diluting out the enzyme and chelating the metals due to the presence of EDTA. Once the detection reagents are added the assay incubates for 30 min to allow for equilibration of the detection reagents.
Buffer conditions are as follows: 50 mM HEPES pH 7.5, 50 mM NaCl, 20 mM MgCl, 5 mM MnCl, 2 mM DTT, 0.05% BSA.
The assay is quenched and stopped with 160 μL of detection reagent. Detection reagents are as follows: Buffer made of 50 mM Tris, pH 7.5, 100 mM NaCl, 3 mM EDTA, 0.05% BSA, 0.1% Tween20.
The assay plate is read in either a Discovery or a RubyStar.

[1] = read-out: activity in the LCK-HTRF Kinase Assay

T1 sequence (P06239 225-509): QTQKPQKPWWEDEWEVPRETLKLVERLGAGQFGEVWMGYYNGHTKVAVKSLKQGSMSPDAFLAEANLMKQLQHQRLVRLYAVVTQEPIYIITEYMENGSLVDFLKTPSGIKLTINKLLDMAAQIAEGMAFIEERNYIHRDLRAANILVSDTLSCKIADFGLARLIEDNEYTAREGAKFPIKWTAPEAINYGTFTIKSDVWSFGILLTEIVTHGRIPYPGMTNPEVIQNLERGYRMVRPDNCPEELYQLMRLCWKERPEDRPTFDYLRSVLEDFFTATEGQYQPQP

IC50 [1] | IC50 | Compound
< 1 µM |  | Cc1cccc(C)c1-n1c(=O)c2cnc(Nc3ccc(N4CCNCC4)cc3)nc2n2c3ccccc3nc12 [No. 2, 6-(2,6-dimethylphenyl)-2-((4-(1-piperazinyl)phenyl)-amino)pyrimido[5′,4′:5,6]pyrimido[1,2-a]-benzimidazol-5(6H)-one]
< 1 µM |  | Cc1cccc(C)c1-n1c(=O)c2cnc(Nc3ccc(N4CCN(C(=O)OC(C)(C)C)CC4)cc3)nc2n2c3ccccc3nc12 [No. 3, 1,1-dimethylethyl 4-(4-((6-(2,6-dimethylphenyl)-5-oxo-5,6-dihydropyrimido[5′,4′:5,6]pyrimido[1,2-a]-benzimidazol-2-yl)amino)phenyl)-1-piperazinecarboxylate]
< 1 µM |  | COc1cc(Nc2ncc3c(=O)n(-c4c(C)cccc4C)c4nc5ccccc5n4c3n2)ccc1OCCC1CCN(C)CC1 [No. 4, 6-(2,6-dimethylphenyl)-2-((3-(methyloxy)-4-((2-(1-methyl-4-piperidinyl)ethyl)oxy)phenyl)amino)-pyrimido[5′,4′:5,6]pyrimido[1,2-a]benzimidazol-5(6H)-one]
< 1 µM |  | Cc1cccc(C)c1-n1c(=O)c2cnc(Nc3ccc(OCCCN4CCCCC4)c(F)c3)nc2n2c3ccccc3nc12 [No. 5, 6-(2,6-dimethylphenyl)-2-((3-fluoro-4-((3-(1-piperidinyl)propyl)oxy)phenyl)amino)-pyrimido[5′,4′:5,6]pyrimido[1,2-a]benzimidazol-5(6H)-one]
< 1 µM |  | CCN(CC)CCCOc1ccc(Nc2ncc3c(=O)n(-c4c(C)cccc4C)c4nc5ccccc5n4c3n2)cc1F [No. 6, 2-((4-((3-(diethylamino)propyl)oxy)-3-fluorophenyl)-amino)-6-(2,6-dimethylphenyl)pyrimido[5′,4′:5,6]-pyrimido[1,2-a]benzimidazol-5(6H)-one]
< 1 µM |  | Cc1cccc(C)c1-n1c(=O)c2cnc(Nc3ccc(OCCCN4CCN(C)CC4)c(F)c3)nc2n2c3ccccc3nc12 [No. 7, 6-(2,6-dimethylphenyl)-2-((3-fluoro-4-((3-(4-methyl-1-piperazinyl)propyl)oxy)phenyl)amino)-pyrimido[5′,4′:5,6]pyrimido[1,2-a]benzimidazol-5(6H)-one]
< 1 µM |  | Cc1cccc(C)c1-n1c(=O)c2cnc(Nc3ccc(OCCN(C)C)cc3)nc2n2c3ccccc3nc12 [No. 8, 2-((4-((2-(dimethylamino)ethyl)oxy)phenyl)amino)-6-(2,6-dimethylphenyl)pyrimido[5′,4′:5,6]pyrimido[1,2-a]benzimidazol-5(6H)-one]
 | < 1 µM | COc1cc(Nc2ncc3c(=O)n(-c4c(C)cccc4C)c4nc5ccccc5n4c3n2)cc(OC)c1OCCCN1CCN(C)CC1 [No. 9, 2-((3,5-bis(methyloxy)-4-((3-(4-methyl-1-piperazinyl)propyl)oxy)phenyl)amino)-6-(2,6-dimethylphenyl)pyrimido[5′,4′:5,6]pyrimido[1,2-a]-benzimidazol-5(6H)-one]
 | < 1 µM | COc1cc(Nc2ncc3c(=O)n(-c4c(C)cccc4C)c4nc5ccccc5n4c3n2)ccc1OCCN1CCN(C)CC1 [No. 10, 6-(2,6-dimethylphenyl)-2-((3-(methyloxy)-4-((2-(4-methyl-1-piperazinyl)ethyl)oxy)phenyl)amino)-pyrimido[5′,4′:5,6]pyrimido[1,2-a]benzimidazol-5(6H)-one]
< 1 µM |  | COc1cc(Nc2ncc3c(=O)n(-c4c(C)cccc4C)c4nc5ccccc5n4c3n2)cc(OCCN2CCN(C)CC2)c1OC [No. 11, 2-((3,4-bis(methyloxy)-5-((2-(4-methyl-1-piperazinyl)ethyl)oxy)phenyl)amino)-6-(2,6-dimethylphenyl)pyrimido[5′,4′:5,6]pyrimido[1,2-a]-benzimidazol-5(6H)-one]
< 1 µM |  | COc1cc(Nc2ncc3c(=O)n(-c4c(C)cccc4C)c4nc5ccccc5n4c3n2)ccc1OCC1CCN(C)CC1 [No. 12, 6-(2,6-dimethylphenyl)-2-((3-(methyloxy)-4-(((1-methyl-4-piperidinyl)methyl)oxy)phenyl)amino)-pyrimido[5′,4′:5,6]pyrimido[1,2-a]benzimidazol-5(6H)-one]
< 1 µM |  | Cc1cc(N2CCN(C)CC2)ccc1Nc1ncc2c(=O)n(-c3c(C)cccc3C)c3nc4ccccc4n3c2n1 [No. 13, 6-(2,6-dimethylphenyl)-2-((2-methyl-4-(4-methyl-1-piperazinyl)phenyl)amino)pyrimido[5′,4′:5,6]-pyrimido[1,2-a]benzimidazol-5(6H)-one]
< 1 µM |  | Cc1cccc(C)c1-n1c(=O)c2cnc(Nc3ccc(OC[C@@H]4CCCN4)cc3)nc2n2c3ccccc3nc12 [No. 14, 6-(2,6-dimethylphenyl)-2-((4-(((2S)-2-pyrrolidinylmethyl)oxy)phenyl)amino)-pyrimido[5′,4′:5,6]pyrimido[1,2-a]benzimidazol-5(6H)-one]
< 1 µM |  | Cc1cc(OCCCN2CCCCC2)ccc1Nc1ncc2c(=O)n(-c3c(C)cccc3C)c3nc4ccccc4n3c2n1 [No. 15, 6-(2,6-dimethylphenyl)-2-((2-methyl-4-((3-(1-piperidinyl)propyl)oxy)phenyl)amino)-pyrimido[5′,4′:5,6]pyrimido[1,2-a]benzimidazol-5(6H)-one]
< 1 µM |  | Cc1cc(OCCCN2CCN(C)CC2)ccc1Nc1ncc2c(=O)n(-c3c(C)cccc3C)c3nc4ccccc4n3c2n1 [No. 16, 6-(2,6-dimethylphenyl)-2-((2-methyl-4-((3-(4-methyl-1-piperazinyl)propyl)oxy)phenyl)amino)-pyrimido[5′,4′:5,6]pyrimido[1,2-a]benzimidazol-5(6H)-one]
< 1 µM |  | COc1cc(Nc2ncc3c(=O)n(-c4c(C)cccc4C)c4nc5ccccc5n4c3n2)cc(OC)c1OC [No. 18, 6-(2,6-dimethylphenyl)-2-((3,4,5-tris(methyloxy)-phenyl)amino)pyrimido[5′,4′:5,6]pyrimido[1,2-a]-benzimidazol-5(6H)-one]
 | < 1 µM | COc1cc(Nc2ncc3c(=O)n(-c4c(C)cccc4C)c4nc5ccccc5n4c3n2)ccc1N1CCN(C)CC1 [No. 19, 6-(2,6-dimethylphenyl)-2-((3-(methyloxy)-4-(4-methyl-1-piperazinyl)phenyl)amino)-pyrimido[5′,4′:5,6]pyrimido[1,2-a]benzimidazol-5(6H)-one]
 | < 1 µM | COc1cc(Nc2ncc3c(=O)n(-c4c(C)cccc4C)c4nc5ccccc5n4c3n2)ccc1OCCCN1CCN(C)CC1 [No. 20, 6-(2,6-dimethylphenyl)-2-((3-(methyloxy)-4-((3-(4-methyl-1-piperazinyl)propyl)oxy)phenyl)amino)-pyrimido[5′,4′:5,6]pyrimido[1,2-a]benzimidazol-5(6H)-one]
< 1 µM |  | COc1cc(Nc2ncc3c(=O)n(-c4c(C)cccc4C)c4nc5ccccc5n4c3n2)cc(OCCCN2CCN(C)CC2)c1OC [No. 21, 2-((3,4-bis(methyloxy)-5-((3-(4-methyl-1-piperazinyl)propyl)oxy)phenyl)amino)-6-(2,6-dimethylphenyl)pyrimido[5′,4′:5,6]pyrimido[1,2-a]-benzimidazol-5(6H)-one]
< 1 µM |  | COc1cc(Nc2ncc3c(=O)n(-c4c(C)cccc4C)c4nc5ccccc5n4c3n2)cc(OC)c1OCCN1CCN(C)CC1 [No. 22, 2-((3,5-bis(methyloxy)-4-((2-(4-methyl-1-piperazinyl)ethyl)oxy)phenyl)amino)-6-(2,6-dimethylphenyl)pyrimido[5′,4′:5,6]pyrimido[1,2-a]-benzimidazol-5(6H)-one]
< 1 µM |  | Cc1cccc(C)c1-n1c(=O)c2cnc(Nc3ccc(OC[C@H]4CCCN4)cc3)nc2n2c3ccccc3nc12 [No. 23, 6-(2,6-dimethylphenyl)-2-((4-(((2R)-2-pyrrolidinylmethyl)oxy)phenyl)amino)-pyrimido[5′,4′:5,6]pyrimido[1,2-a]benzimidazol-5(6H)-one]
< 1 µM |  | Cc1cccc(C)c1-n1c(=O)c2cnc(Nc3ccc(OCCC4CCN(C)CC4)cc3)nc2n2c3ccccc3nc12 [No. 24, 6-(2,6-dimethylphenyl)-2-((4-((2-(1-methyl-4-piperidinyl)ethyl)oxy)phenyl)amino)-pyrimido[5′,4′:5,6]pyrimido[1,2-a]benzimidazol-5(6H)-one]
< 1 µM |  | COc1cc(Nc2ncc3c(=O)n(-c4c(C)cccc4C)c4nc5ccccc5n4c3n2)cc(OC)c1OCCN1CCCCC1 [No. 25, 2-((3,5-bis(methyloxy)-4-((2-(1-piperidinyl)ethyl)-oxy)phenyl)amino)-6-(2,6-dimethylphenyl)-pyrimido[5′,4′:5,6]pyrimido[1,2-a]benzimidazol-5(6H)-one]
< 1 µM |  | Cc1cccc(C)c1-n1c(=O)c2cnc(Nc3ccc(N4CCN(C)CC4)c(F)c3)nc2n2c3ccccc3nc12 [No. 26, 6-(2,6-dimethylphenyl)-2-((3-fluoro-4-(4-methyl-1-piperazinyl)phenyl)amino)pyrimido[5′,4′:5,6]-pyrimido[1,2-a]benzimidazol-5(6H)-one]
< 1 µM |  | Cc1cccc(C)c1-n1c(=O)c2cnc(Nc3ccc(OCCN4CCCCC4)cc3)nc2n2c3ccccc3nc12 [No. 27, 6-(2,6-dimethylphenyl)-2-((4-((2-(1-piperidinyl)-ethyl)oxy)phenyl)amino)pyrimido[5′,4′:5,6]-pyrimido[1,2-a]benzimidazol-5(6H)-one]
< 1 µM |  | Cc1cccc(C)c1-n1c(=O)c2cnc(Nc3ccc(OC[C@@H]4CCCN4C)cc3)nc2n2c3ccccc3nc12 [No. 28, 6-(2,6-dimethylphenyl)-2-((4-((((2S)-1-methyl-2-pyrrolidinyl)methyl)oxy)phenyl)amino)-pyrimido[5′,4′:5,6]pyrimido[1,2-a]benzimidazol-5(6H)-one]

From patent publication US20050070554A1, “Substituted heterocyclic compounds and methods of use” (Amgen Inc., priority 2003, published 2005)
